Laboratory results taken from US20020022652A1, “Methylnogarol compositions and uses thereof” (priority 2000, published 2002).
Where two headings read alike, the source gives them in different places.

System: murine fibrosarcomas (RIF−1 cells)
Assay type: in vivo
Conditions: for Mean TVQT (± SE): RIF-1 tumors in C3H mice, paclitaxel 10 mg/kg, camptothecin 6 mg/kg, combinations with second agent 30 min after menogaril; for Mean TVQT (± SE) / Mean TVQT ± S.E.: menogaril 50 mg/kg; for Delay: median TVQT of treated group minus median of control; for Delay / TVQT/CTVQT / Median (TVQT): same doses; for Mean TVQT ± S.E.: RIF-1 tumors in female C3H mice, single i.p. injection, cisplatin 4 mg/kg, combination with cisplatin 30 min after menogaril, 4 mice per group
Procedure: Transplantable experimental murine fibrosarcomas (2×10^5 RIF−1 cells) were grown intradermally in the flanks of 3 month old female C3H mice (Charles River, Holister, Calif.). When the tumors reached a volume of approximately 100 mm^3, the mice were randomly assigned to each experimental group (4 mice per group).
The chemopotentiator, menogaril, was obtained from NCI and was made to the appropriate concentration in DMSO. Cisplatin (David Bull Laboratories- Mulgrave, Australia, lot. 5201844x) was made to the appropriate concentration in water for injection. The compositions were injected systemically (i.e., intraperitoneally, i.p.), in a volume of 100 microliters. For the treatment of group 3, the chemopotentiator, menogaril, was injected 30 minutes prior to the injection of cisplatin. After treatment, the growth of the tumors was monitored three times per week by caliper measurements of three perpendicular diameters of the tumor and calculation of tumor volume from the formula: […]
The tumors were followed until they reached a size of four times their day zero treatment volume (TVQT), or up to 30 days after treatment, whichever came first. The data is expressed as the “tumor volume quadrupling time” (TVQT) mean and as the “delay.” Mean TVQT is the mean days required for individual tumors to grow to four times the tumor volume at the initial treatment day. The “delay” is the median of days required for a tumor to grow to four times the mean size of the treated group, minus the median of days required to grow to four times the mean size of the control group. The data is also expressed as the ratio of the tumor volume quadrupling time of the treated tumor over the untreated control group (TVQT/CTVQT). Increasing values of this ratio indicate increased antitumor response.
The ability of menogaril to enhance the effect of camptothecin or paclitaxel was also studied, using the same methods described in Example 1. […] For each injection, 100 microliters was injected.

[1] = Example 2, Table 4, ratio of treated group over untreated control, IP
[2] = Example 1, Table 3, ratio of TVQT of treated group over untreated control, i.p.

Compound | Mean TVQT (± SE) (Example 2, Table 4, IP) [days] | Delay (Example 2, Table 4, IP) | TVQT/CTVQT [1] | Median (TVQT) (Example 2, Table 4, IP) [days] | Mean TVQT ± S.E. (Example 1, Table 3) [days] | Delay (Example 1, Table 3, i.p.) [days] | TVQT/CTVQT [2] | Median (TVQT) (Example 1, Table 3, i.p.) [days]
CC[C@@]1(O)C(=O)OCc2c1cc1n(c2=O)Cc2cc3ccccc3nc2-1 [Camptothecin, camptothecin] | 9.9 ± 0.5 | 1.44 | 1.1 | 9.8 |  |  |  | 
N.N.[Cl][Pt][Cl] [Cisplatin, cis-diamminedichloroplatinum II] |  |  |  |  | 8.4 ± 0.3 | 2.10 | 1.3 | 8.1
CO[C@@H]1C[C@](C)(O)Cc2cc3c(c(O)c21)C(=O)c1c(O)cc2c(c1C3=O)O[C@@H]1O[C@@]2(C)[C@H](O)[C@@H](N(C)C)[C@@H]1O [Menogaril, 2,6-Epoxy-2H-naphthaceno[1,2-b]oxocin-9,16-dione, 4-(dimethylamino)-3,4,5,6,11,12,13,14-octahydro-3,5,8,10,13-pentahydroxy-11-methoxy-6,13-dimethyl-,(2alpha,3beta,4alpha,5beta,6alpha, 11 alpha, 13alpha)-, (P)-] | 10.2 ± 0.8 | 1.84 | 1.2 | 10.2 | 9.1 ± 0.5 | 3.31 | 1.4 | 9.4
CC(=O)O[C@H]1C(=O)[C@@]2(C)[C@H]([C@H](OC(=O)c3ccccc3)[C@]3(O)C[C@H](OC(=O)[C@H](O)[C@@H](NC(=O)c4ccccc4)c4ccccc4)C(C)=C1C3(C)C)[C@]1(OC(C)=O)CO[C@@H]1C[C@@H]2O [Paclitaxel, paclitaxel] | 9.0 ± 0.4 | 0.36 | 1.0 | 8.7 |  |  |  | 
